Measurements published in PubChem BioAssay (NCI).
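Method: 48-hour compound exposure of cells in 96-well plates, five concentrations, linear interpolation of endpoints. TGI marks complete inhibition of growth.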

Experiments:
Experiment in all cases: growth of human tumour cells (NCI), 48 h
[1] = tested on: SK-OV-3 ovarian
[2] = tested on: SN12C renal
[3] = tested on: HOP-92 NSCLC
[4] = tested on: HOP-62 NSCLC
[5] = tested on: RPMI-8226 leukemia
[6] = tested on: SK-MEL-28 melanoma
[7] = tested on: PC-3 prostate
[8] = tested on: NCI-H460 lung
[9] = tested on: A549 NSCLC
[10] = tested on: SR leukemia
[11] = tested on: UO-31 renal
[12] = tested on: HL-60(TB) leukemia
[13] = tested on: ACHN renal
[14] = tested on: DU-145 prostate
[15] = tested on: SNB-75 CNS
[16] = tested on: MOLT-4 leukemia
[17] = tested on: NCI-H522 lung
[18] = tested on: SW-620 colon

CC(=O)OC1COC(n2nc(/C=C/c3ccc(Cl)cc3)c(=O)n(/N=C/c3ccccc3)c2=S)C(OC(C)=O)C1OC(C)=O (stereo not drawn)
TGI [1]: > 100 µM
TGI [2]: > 100 µM
TGI [3]: > 100 µM
TGI [4]: > 100 µM
TGI [5]: > 100 µM
TGI [6]: > 100 µM
TGI [7]: > 100 µM
TGI [8]: > 100 µM
TGI [9]: > 100 µM
TGI [10]: > 100 µM
TGI [11]: > 100 µM
TGI [12]: > 100 µM
TGI [13]: > 100 µM
TGI [14]: > 100 µM
TGI [15]: > 100 µM
TGI [16]: > 100 µM
TGI [17]: > 100 µM
TGI [18]: > 100 µM

C(=C\c1nccs1)/c1cccc(/C=C/c2nccs2)n1
TGI [1]: > 50 µM
TGI [2]: > 50 µM
TGI [3]: > 50 µM
TGI [4]: > 50 µM
TGI [5]: > 50 µM
TGI [6]: > 50 µM
TGI [7]: > 50 µM
TGI [8]: > 50 µM
TGI [9]: > 50 µM
TGI [10]: > 50 µM
TGI [11]: > 50 µM
TGI [12]: > 50 µM
TGI [13]: > 50 µM
TGI [14]: > 50 µM
TGI [15]: > 50 µM
TGI [16]: > 50 µM
TGI [17]: > 50 µM
TGI [18]: > 50 µM

O=c1[nH]/c(=C/c2ccc(OCc3ccccc3)cn2)c(=O)[nH]/c1=C/c1ccc(Cl)cc1
TGI [1]: > 100 µM
TGI [2]: > 100 µM
TGI [3]: > 100 µM
TGI [4]: 47.8 µM
TGI [5]: > 100 µM
TGI [6]: > 100 µM
TGI [7]: > 100 µM
TGI [8]: > 100 µM
TGI [9]: > 100 µM
TGI [10]: 4.53 µM
TGI [11]: > 100 µM
TGI [12]: > 40.2 µM
TGI [13]: > 100 µM
TGI [14]: > 100 µM
TGI [15]: 25.2 µM
TGI [16]: > 100 µM
TGI [17]: > 84.9 µM
TGI [18]: > 100 µM

CC(=O)Oc1ccc2c(C)cc(=O)oc2c1
TGI [1]: > 100 µM
TGI [2]: > 100 µM
TGI [3]: > 100 µM
TGI [4]: > 100 µM
TGI [5]: > 100 µM
TGI [6]: > 100 µM
TGI [7]: > 100 µM
TGI [8]: > 100 µM
TGI [9]: > 100 µM
TGI [10]: > 100 µM
TGI [11]: > 100 µM
TGI [12]: > 100 µM
TGI [13]: > 100 µM
TGI [14]: > 100 µM
TGI [15]: > 100 µM
TGI [16]: > 100 µM
TGI [17]: > 100 µM
TGI [18]: > 100 µM

OCC1OC(Oc2cc(O)cc(/C=C/c3ccc(O)cc3)c2)C(O)C(O)C1O (stereo not drawn)
TGI [1]: > 100 µM
TGI [2]: > 100 µM
TGI [3]: > 100 µM
TGI [4]: > 100 µM
TGI [5]: > 100 µM
TGI [6]: > 100 µM
TGI [7]: > 100 µM
TGI [8]: > 100 µM
TGI [9]: > 100 µM
TGI [10]: > 100 µM
TGI [11]: > 100 µM
TGI [12]: > 100 µM
TGI [13]: > 100 µM
TGI [14]: > 100 µM
TGI [15]: > 100 µM
TGI [16]: > 100 µM
TGI [17]: > 100 µM
TGI [18]: > 100 µM

COc1ccc(N=Nc2ccc3oc(=O)c(C(=O)Nc4ccccc4)cc3c2)cc1
TGI [1]: > 10 µM
TGI [2]: > 10 µM
TGI [3]: > 10 µM
TGI [4]: > 10 µM
TGI [5]: > 10 µM
TGI [6]: > 10 µM
TGI [7]: > 10 µM
TGI [8]: > 10 µM
TGI [9]: > 10 µM
TGI [10]: > 10 µM
TGI [11]: > 10 µM
TGI [12]: > 10 µM
TGI [13]: > 10 µM
TGI [14]: > 10 µM
TGI [15]: > 10 µM
TGI [16]: > 10 µM
TGI [17]: > 10 µM
TGI [18]: > 10 µM
